Measurements taken from PubChem BioAssay AID1963971 (Molecular Pharmacology Branch, DTP, NCI, 2024).

Test system: 953936-095-R-J2-PDC spheroids with HUVEC/MSC, viability
Experiment: Anticancer human tumor 953936-095-R-J2-PDC patient-derived cervical squamous cell carcinoma cell line growth inhibition [PI3K]
Details: for IC50: curve of first compound; for viability, T/C: stronger effect = lower value
Excerpt: Combinatorial screen of targeted agents with the PI3K inhibitors inavolisib, alpelisib, duvelisib, and copanlisib in multi-cell type tumor spheroids
A high-throughput screen of multi-cell type tumor spheroids was designed to identify active combinations of targeted small molecules and PI3K pathway inhibitors. Complex spheroids include a stromal component modeled by human endothelial cells (HUVEC) and fibroblasts modeled by human mesenchymal stem cells (MSCs). The concentration ranges selected for each drug and investigational agent were based upon clinically achievable concentrations if the clinical Cmax of the agent was known.
Compounds. The drugs and investigational agents: inavolisib (NSC800729), alpelisib (NSC765974), duvelisib (NSC772469), copanlisib (NSC816437), ipatasertib (NSC767898), afuresertib (NSC778305), talazoparib (NSC767125), sapanisertib (NSC764658), selumetinib (NSC741078), tovorafenib (DAY101, NSC766906), vemurafenib (NSC761431), ravoxertinib (NSC781343), sotorasib (NSC818433), MRTX1133 (NSC 836407), abemaciclib (NSC 768073), palbociclib (NSC758247), venetoclax (NSC 766270), SY5609 (NSC837396), enzalutamide (NSC755605), and darolutamide (NSC825331), were obtained from the National Cancer Institute (NCI) Developmental Therapeutics Program Chemical Repository. The FDA-approved anticancer drug set is available from the NCI Developmental Therapeutics Program. […] The stock solutions were prepared in dimethyl sulfoxide (DMSO, Sigma-Aldrich, St. Louis, MO, cat. D2650) at 800-fold the tested concentration and stored at -70 degrees C prior to their use. All drugs and investigational agents were tested over a range starting from a high concentration at or near the clinical Cmax and decreasing in half-log increments. If the clinical Cmax for an agent had not been determined, the highest concentration tested was 10 microM.
Cell Culture. All cells were maintained in an incubator at 37 degrees C and 5% CO2 with 95% humidity. The PDC lines were cultured according to standard operating procedures established by the NCI PDMR (https://pdmr.cancer.gov/sops/default.htm). All PDCs were thawed and cultured in Matrigel-coated flasks prepared with a working solution of 1X Ham's F-12 nutrient mix, without supplementation (Invitrogen, Waltham, MA, cat. 11765054), 100 U/mL penicillin-streptomycin (Invitrogen, cat. 15140122), and 2.5% Matrigel (Corning Inc., Corning, NY, cat. 354248) for the first three passages. The 354836-022-R-J1-PDC, 475296-252-R-J1-PDC, and 997726-040-R-J2-PDC lines were cultured in 6A media, which includes advanced DMEM/F-12 (Thermo Fisher Scientific, cat. 12634028), 10 mM HEPES (Thermo Fisher Scientific, cat. 15630080), 1X GlutaMAX supplement (Thermo Fisher Scientific, cat. 35050061), 0.1 mg/mL primocin (InvivoGen, San Diego, CA, cat. ant-pm-2), 10% defined fetal bovine serum, heat inactivated (HyClone Laboratories Inc., Logan, UT, cat. SH30070.03HI), 50% L-WRN conditioned media (ATCC, cat. CRL-3276), 1.25 mM N-Acetyl-L-cysteine (Sigma-Aldrich, cat. A9165), 10 mM nicotinamide (Sigma-Aldrich, cat. N0636), 1X B-27 supplement (Thermo Fisher Scientific, cat. 17504044), 1X N-2 supplement (Thermo Fisher Scientific, cat. 17502048), and 10 microM Y-27632 dihydrochloride (Tocris Bioscience, Bristol, United Kingdom, cat. 1254). The 624824-186-R-J2-PDC line was cultured in 6C/Colon 1B media, which includes all 6A media components plus 50 ng/mL human EGF recombinant protein (Thermo Fisher Scientific, cat. PHG0311). […]

[1] = second compound 0.00316 µM, first compound 0.0316 µM
[2] = second compound 0.00316 µM, first compound 0.1 µM
[3] = second compound 0.01 µM, first compound 0.0316 µM
[4] = second compound 0.01 µM, first compound 0.1 µM
[5] = second compound 0.0316 µM, first compound 0.0316 µM
[6] = second compound 0.0316 µM, first compound 0.1 µM
[7] = second compound 0.1 µM, first compound 0.0316 µM
[8] = second compound 0.1 µM, first compound 0.1 µM
[9] = second compound 0.316 µM, first compound 0.0316 µM
[10] = second compound 0.316 µM, first compound 0.1 µM
[11] = second compound 1 µM, first compound 0.0316 µM
[12] = second compound 1 µM, first compound 0.1 µM
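Also: spheroids exposed to compounds for seven days before read-out.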

Structure (SMILES): CC(C)n1nc(-c2ccc3oc(N)nc3c2)c2c(N)ncnc21 + CC(Nc1ccc2c(c1)OCCn1cc(N3C(=O)OCC3C(F)F)nc1-2)C(N)=O
- IC50 (second compound 0.00316 µM): 27.5 nM
- IC50 (second compound 0.01 µM): 23.1 nM
- IC50 (second compound 0.0316 µM): 14.2 nM
- IC50 (second compound 0.1 µM): 1.4 nM
- IC50 (second compound 0.316 µM): < 0.316 nM
- IC50 (second compound 1 µM): < 0.316 nM
- viability, T/C (second compound 0.00316 µM, first compound 0.000316 µM): 92.9%
- viability, T/C (second compound 0.00316 µM, first compound 0.001 µM): 93.3%
- viability, T/C (second compound 0.00316 µM, first compound 0.00316 µM): 81.3%
- viability, T/C (second compound 0.00316 µM, first compound 0.01 µM): 73.7%
- viability, T/C [1]: 46.2%
- viability, T/C [2]: 15.5%
- viability, T/C (second compound 0.01 µM, first compound 0.000316 µM): 87.1%
- viability, T/C (second compound 0.01 µM, first compound 0.001 µM): 88.8%
- viability, T/C (second compound 0.01 µM, first compound 0.00316 µM): 79.1%
- viability, T/C (second compound 0.01 µM, first compound 0.01 µM): 67.6%
- viability, T/C [3]: 43.6%
- viability, T/C [4]: 15.2%
- viability, T/C (second compound 0.0316 µM, first compound 0.000316 µM): 73%
- viability, T/C (second compound 0.0316 µM, first compound 0.001 µM): 71.9%
- viability, T/C (second compound 0.0316 µM, first compound 0.00316 µM): 73.4%
- viability, T/C (second compound 0.0316 µM, first compound 0.01 µM): 53.5%
- viability, T/C [5]: 35.7%
- viability, T/C [6]: 12.1%
- viability, T/C (second compound 0.1 µM, first compound 0.000316 µM): 57.7%
- viability, T/C (second compound 0.1 µM, first compound 0.001 µM): 52.5%
- viability, T/C (second compound 0.1 µM, first compound 0.00316 µM): 44.3%
- viability, T/C (second compound 0.1 µM, first compound 0.01 µM): 34%
- viability, T/C [7]: 21.6%
- viability, T/C [8]: 7.99%
- viability, T/C (second compound 0.316 µM, first compound 0.000316 µM): 34.1%
- viability, T/C (second compound 0.316 µM, first compound 0.001 µM): 31.2%
- viability, T/C (second compound 0.316 µM, first compound 0.00316 µM): 28.5%
- viability, T/C (second compound 0.316 µM, first compound 0.01 µM): 22.7%
- viability, T/C [9]: 13.1%
- viability, T/C [10]: 6.47%
- viability, T/C (second compound 1 µM, first compound 0.000316 µM): 20.8%
- viability, T/C (second compound 1 µM, first compound 0.001 µM): 21.7%
- viability, T/C (second compound 1 µM, first compound 0.00316 µM): 18.3%
- viability, T/C (second compound 1 µM, first compound 0.01 µM): 16.3%
- viability, T/C [11]: 9.69%
- viability, T/C [12]: 5.32%

Structure (SMILES): CCCS(=O)(=O)Nc1ccc(F)c(C(=O)c2c[nH]c3ncc(-c4ccc(Cl)cc4)cc23)c1F + CC(Nc1ccc2c(c1)OCCn1cc(N3C(=O)OCC3C(F)F)nc1-2)C(N)=O
- IC50 (second compound 0.00316 µM): 5190 nM
- IC50 (second compound 0.01 µM): 4760 nM
- IC50 (second compound 0.0316 µM): 4770 nM
- IC50 (second compound 0.1 µM): 3260 nM
- IC50 (second compound 0.316 µM): < 31.6 nM
- IC50 (second compound 1 µM): < 31.6 nM
- viability, T/C [1]: 93.9%
- viability, T/C [2]: 101%
- viability, T/C (second compound 0.00316 µM, first compound 0.316 µM): 104%
- viability, T/C (second compound 0.00316 µM, first compound 1 µM): 111%
- viability, T/C (second compound 0.00316 µM, first compound 3.16 µM): 87.3%
- viability, T/C (second compound 0.00316 µM, first compound 10 µM): 0.81%
- viability, T/C [3]: 91.7%
- viability, T/C [4]: 94.8%
- viability, T/C (second compound 0.01 µM, first compound 0.316 µM): 96.4%
- viability, T/C (second compound 0.01 µM, first compound 1 µM): 98.7%
- viability, T/C (second compound 0.01 µM, first compound 3.16 µM): 77.1%
- viability, T/C (second compound 0.01 µM, first compound 10 µM): 0.48%
- viability, T/C [5]: 82%
- viability, T/C [6]: 78.7%
- viability, T/C (second compound 0.0316 µM, first compound 0.316 µM): 78.7%
- viability, T/C (second compound 0.0316 µM, first compound 1 µM): 81.9%
- viability, T/C (second compound 0.0316 µM, first compound 3.16 µM): 75.6%
- viability, T/C (second compound 0.0316 µM, first compound 10 µM): 3.87%
- viability, T/C [7]: 56.3%
- viability, T/C [8]: 58.7%
- viability, T/C (second compound 0.1 µM, first compound 0.316 µM): 59%
- viability, T/C (second compound 0.1 µM, first compound 1 µM): 56.1%
- viability, T/C (second compound 0.1 µM, first compound 3.16 µM): 51.5%
- viability, T/C (second compound 0.1 µM, first compound 10 µM): 0.85%
- viability, T/C [9]: 34%
- viability, T/C [10]: 34%
- viability, T/C (second compound 0.316 µM, first compound 0.316 µM): 35.5%
- viability, T/C (second compound 0.316 µM, first compound 1 µM): 35.8%
- viability, T/C (second compound 0.316 µM, first compound 3.16 µM): 27.4%
- viability, T/C (second compound 0.316 µM, first compound 10 µM): 0.86%
- viability, T/C [11]: 21.7%
- viability, T/C [12]: 23.6%
- viability, T/C (second compound 1 µM, first compound 0.316 µM): 23.1%
- viability, T/C (second compound 1 µM, first compound 1 µM): 26%
- viability, T/C (second compound 1 µM, first compound 3.16 µM): 17.9%
- viability, T/C (second compound 1 µM, first compound 10 µM): 0.87%
